Data reported in patent publication US20130337051A1, “ADVANCED ACTIVE LIPOSOMAL LOADING OF POORLY WATER-SOLUBLE SUBSTANCES” (priority 2011, published 2013).
≈ marks a conversion by molar mass, not a printed value.

Columns and labels:
physchem = format: physicochemical
Experimental: A chemical molecule (compound B) is presented with a low molecular weight. […] The solubility is increased up to 8 mg/ml in PEG200.
A calpain inhibitor (PD 150606) is presented, having a low molecular weight of 306 Da. […] The solubility is increased up to 8 mg/ml in PEG200.

[1] = Active loading of pre-formed liposomes (encapsulation efficiency, final product); format: physicochemical; conditions: solubilized in pure PEG200 and HPβCD; same pre-formed liposomes (calcium acetate)
Experimental: Liposomes may consist of different phospholipids and cholesterol in several molar ratios in order to modify the transition/processing temperature and particle stability in plasma. […] Components are dissolved in ethanol or iso-propanol. Additionally, for the purpose of increasing the (in vivo) particle stability and enhanced brain delivery, micelles consisting of DSPE-PEG-GSH (up to 5 mol %), which is synthesized before preparation of the liposomes using DSPE-PEG-MAL and fresh solutions of reduced glutathione, and/or DSPE-mPEG (Mw 2000) may be added to the solution at different mol-percentages (up to 5-10 mol % in total). The (lipid) mixture is injected in aqueous solutions containing active loading buffer of different ionic strengths (1-1000 mM), e.g. 2 mg/mL ammonium sulfate or 1 mg/mL calcium acetate. After stirring, the formed vesicles are either extruded through membranes or homogenized in an emulsifier to create liposomes of a uniform size. Alternatively, DSPE-PEG-GSH or DSPE-mPEG is added after preparation of the liposomes by incubation at 25° C. up to 60° C. for 2 up to 24 hours (depending on the phase transition temperature of the lipid mixture and the temperature sensitivity of the agent). […]
The compound is measured with UV at 295 nm at concentrations between 5-60 μg/ml. […]

[2] = pH 7, aqueous with cosolvent or surfactant or cyclodextrin

Compound | solubility (physchem; 20 °C) [µg/mL] | solubility (physchem; aqueous with cosolvent or surfactant or cyclodextrin) [µg/mL] | solubility (physchem; [2]) [µg/mL] | active loading into pre-formed liposomes [1] | solubility in PEG200 (physchem) | solubility in water (physchem) | stability at basic pH (physchem) | solubility (physchem; pH 5, aqueous buffer) [µg/mL] | solubility (physchem; pH 6, aqueous buffer) [µg/mL] | solubility (physchem; pH 7, aqueous buffer) [µg/mL] | solubility (physchem; pH 8, aqueous buffer) [µg/mL]
C[C@@H](Oc1cc(-c2cnn(C3CCNCC3)c2)cnc1N)c1c(Cl)ccc(F)c1Cl [Crizotinib] | < 100 | 2200 (≈ 4890 µM) | ≥ 5000 | – | – | – | – | – | – | – | –
O=C(O)/C(S)=C/c1ccc(I)cc1 [PD 150606] | – | – | – | no active loading | up to 8 mg/ml | below 0.05 mg/ml | decomposes | – | – | – | –
O=C(O)c1cccnc1C(=O)O [quinolinic acid] | – | – | ≤ 2200 | – | – | – | – | 3 (≈ 18 µM) | 20 (≈ 120 µM) | 350 (≈ 2090 µM) | 900 (≈ 5390 µM)
